{"source": "PubChem BioAssay AID732", "about": "(Emory University Molecular Libraries Screening Center, 2007)", "note": "Calls of active or inactive are those of the source. No rule for the calls is given here."}
{"test_system": "in vivo angiogenesis, blood vessel count", "test": "reduction of blood vessel formation in vivo – HTS, in vivo study (AID 732);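 also: zebrafish embryos dosed at one day post fertilization; 0% = reference inhibitor and 100% = plate mean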", "conditions": "hits give low values;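 tested at 30 µM in the well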"}
{"smiles": "CC(C)(C(=O)O)c1ccc(C(O)CCCN2CCC(C(O)(c3ccccc3)c3ccccc3)CC2)cc1", "note": "(stereo unspecified)", "vessel count % control": "116% (inactive)"}
{"smiles": "Nc1nc(Cl)nc2c1ncn2[C@@H]1O[C@H](CO)[C@H](O)C1O", "note": "(stereo partly specified)", "vessel count % control": "107% (inactive)"}
{"smiles": "Cc1sc2ccccc2c1CC1=NCCN1", "vessel count % control": "92.5% (inactive)"}
{"smiles": "OCC1NCC(O)C(O)C1O", "note": "(stereo unspecified)", "vessel count % control": "97.9% (inactive)"}
{"smiles": "CC(C)COCC(CN(Cc1ccccc1)c1ccccc1)N1CCCC1", "note": "(stereo unspecified)", "vessel count % control": "104% (inactive)"}
{"smiles": "CC1CC2C3CCC4=CC(=O)C=C[C@]4(C)[C@@]3(F)[C@@H](O)C[C@]2(C)[C@@]1(O)C(=O)CO", "note": "(stereo partly specified)", "vessel count % control": "129% (inactive)"}
{"smiles": "CC(C)(C)c1cc(C=C(C#N)C#N)cc(C(C)(C)C)c1O", "vessel count % control": "0% (inactive)"}
{"smiles": "COC(=O)C1=CCCN(C)C1", "vessel count % control": "66% (inactive)"}
{"smiles": "S=C(S)N1CCCC1", "vessel count % control": "73.2% (inactive)"}
{"smiles": "CCCN(CCC)C(=O)C(CCC(=O)O)NC(=O)c1ccccc1", "note": "(stereo unspecified)", "vessel count % control": "103% (inactive)"}
{"smiles": "COCCCC/C(=N\\OCCN)c1ccc(C(F)(F)F)cc1", "vessel count % control": "145% (inactive)"}
{"smiles": "COc1ccc(OC)c(C(O)C(C)N)c1", "note": "(stereo unspecified)", "vessel count % control": "94.8% (inactive)"}
{"smiles": "C#CCN(C)[C@@H](C)Cc1ccccc1", "vessel count % control": "74.7% (inactive)"}
{"smiles": "CCCNC[C@H](O)COc1ccccc1C(=O)CCc1ccccc1", "vessel count % control": "93.1% (inactive)"}
{"smiles": "COc1c2c(nc3ccccc13)OC(C(C)(O)CO)C2", "note": "(stereo unspecified)", "vessel count % control": "120% (inactive)"}
{"smiles": "CC[N+](C)(C)c1cccc(O)c1", "vessel count % control": "114% (inactive)"}
{"smiles": "O=C1OC(=O)C2C3CCC(O3)C12", "note": "(stereo unspecified)", "vessel count % control": "111% (inactive)"}
{"smiles": "Cc1ccc(S(=O)(=O)N[C@@H](CCCCN)C(=O)CCl)cc1", "vessel count % control": "133% (inactive)"}
{"smiles": "c1ccc(CCCN2CCN(CCOC(c3ccccc3)c3ccccc3)CC2)cc1", "vessel count % control": "101% (inactive)"}
{"smiles": "CN=C(NC#N)NCCSCc1nc[nH]c1C", "vessel count % control": "112% (inactive)"}
{"smiles": "CC(C)NCC(O)COc1ccc(CCOCC2CC2)cc1", "note": "(stereo unspecified)", "vessel count % control": "94.3% (inactive)"}
{"smiles": "COc1ccc(C(=O)N2CCCC2=O)cc1", "vessel count % control": "116% (inactive)"}
{"smiles": "O=[N+]([O-])c1ccc2nc(N3CCNCC3)ccc2c1", "vessel count % control": "118% (inactive)"}
{"smiles": "O=C(O)CCC(NC(=O)c1ccccc1C(=O)O)C(=O)O", "note": "(stereo unspecified)", "vessel count % control": "103% (inactive)"}
{"smiles": "Oc1ccc(-c2nc(-c3ccc(F)cc3)c(-c3ccncc3)[nH]2)cc1", "vessel count % control": "97.9% (inactive)"}
{"smiles": "[Li+]", "vessel count % control": "0% (inactive)"}
{"smiles": "CN1CCc2cccc(Cl)c2CC1", "vessel count % control": "93.2% (inactive)"}
{"smiles": "O=C1NCC2(CCN(CCc3ccccc3)CC2)O1", "vessel count % control": "110% (inactive)"}
{"smiles": "CCCC[N+]1(C)C2CC(OC(=O)[C@H](CO)c3ccccc3)CC1C1OC12", "note": "(stereo partly specified)", "vessel count % control": "107% (inactive)"}
{"smiles": "CC(C)C[C@H](NC(=O)C1OC1C(=O)O)C(=O)NCCCCN=C(N)N", "note": "(stereo partly specified)", "vessel count % control": "108% (inactive)"}
{"smiles": "C/C=C/CC(C)C(O)C1C(=O)NC(CC)C(=O)N(C)CC(=O)N(C)C(CC(C)C)C(=O)NC(C(C)C)C(=O)N(C)C(CC(C)C)C(=O)NC(C)C(=O)NC(C)C(=O)N(C)C(CC(C)C)C(=O)N(C)C(CC(C)C)C(=O)N(C)C(C(C)C)C(=O)N1C", "note": "(stereo unspecified)", "vessel count % control": "108% (inactive)"}
{"smiles": "CN1CCC23CCCC[C@H]2C1Cc1ccc(O)cc13", "note": "(stereo partly specified)", "vessel count % control": "100% (inactive)"}
{"smiles": "N#CC(C#N)=C(N)/C(C#N)=C/c1ccc(O)cc1", "vessel count % control": "93% (inactive)"}
{"smiles": "CCCn1c(=O)[nH]c(=O)c2[nH]cnc21", "vessel count % control": "97.5% (inactive)"}
{"smiles": "CN1CCC2(CCN3CCc4c(oc5ccccc45)C3C2)N(C)C1=O", "note": "(stereo unspecified)", "vessel count % control": "87.3% (inactive)"}
{"smiles": "NC(=NCc1ccccc1)NC(=O)c1nc(Cl)c(N)nc1N", "vessel count % control": "107% (inactive)"}
{"smiles": "O=Nc1c(-c2c(O)[nH]c3ccc(S(=O)(=O)O)cc23)[nH]c2ccccc12", "vessel count % control": "92.9% (inactive)"}
{"smiles": "NCCNC(=O)c1ccc(Cl)cc1", "vessel count % control": "106% (inactive)"}
{"smiles": "O=C(OC1CCN(CCCl)CC1)C(c1ccccc1)c1ccccc1", "vessel count % control": "102% (inactive)"}
{"smiles": "C[C@@H]1C(=O)NC2=Nc3cccc(Cl)c3CN21", "vessel count % control": "119% (inactive)"}
{"smiles": "O=C1C2C=CC=CC2=NC(=S)N1CCN1CCC(=C(c2ccc(F)cc2)c2ccc(F)cc2)CC1", "note": "(stereo unspecified)", "vessel count % control": "78.2% (inactive)"}
{"smiles": "N=C(N)SCCc1ccc(CCSC(=N)N)cc1", "vessel count % control": "72.6% (inactive)"}
{"smiles": "COc1cc2c(CCNC(C)=O)c[nH]c2cc1Cl", "vessel count % control": "71.1% (inactive)"}
{"smiles": "O=c1[nH]cc(F)c(=O)[nH]1", "vessel count % control": "111% (inactive)"}
{"smiles": "COc1cc(C(O)CO)ccc1O", "note": "(stereo unspecified)", "vessel count % control": "96.8% (inactive)"}
{"smiles": "CNc1cc(NS(=O)(=O)c2ccc(N)cc2)nc(NC)n1", "vessel count % control": "81.3% (inactive)"}
{"smiles": "CCC(CO)Nc1nc(NCc2ccccc2)c2ncn(C(C)C)c2n1", "note": "(stereo unspecified)", "vessel count % control": "82.5% (inactive)"}
{"smiles": "CC(C(=O)O)c1cccc(C(=O)c2ccccc2)c1", "note": "(stereo unspecified)", "vessel count % control": "122% (inactive)"}
{"smiles": "Cc1cccc(/C=C/c2ccccc2)n1", "vessel count % control": "74.2% (inactive)"}
{"smiles": "N#C/C(=C\\c1ccc(O)c(O)c1)C(=O)NCCCNC(=O)/C(C#N)=C/c1ccc(O)c(O)c1", "vessel count % control": "118% (inactive)"}
{"smiles": "CC(CCc1ccc(O)cc1)NCCc1ccc(O)c(O)c1", "note": "(stereo unspecified)", "vessel count % control": "92.8% (inactive)"}
